The results in this text go back to patent publication US20110098216A1 (REGEN THERAPEUTICS PLC, priority 2009, published 2011).

Data set [1] concerns polychromatic erythrocytes in bone marrow of male and female ICR mice. The note with it: definitive study, male and female mice, 24 or 48 h after dose; CP 50 mg/kg; Kastenbaum-Bowman Tables.
Experimental: The assay was performed in two phases. The first phase, pilot toxicity study, was designed to assess toxicity of the test article and set dose levels for the definitive study. The second phase, the definitive micronucleus study, was designed to evaluate the potential of the test article to increase the incidence of micronucleated polychromatic erythrocytes in bone marrow of male and female ICR mice.
Phosphate buffered saline (PBS) was used as the test article vehicle. The test article was a workable suspension in PBS at 100 mg/mL, the maximum concentration prepared and tested in this study. […] In both phases of the study, test or control articles were administered at a dose volume of 20 mL/kg body weight via a single oral gavage dose.
The definitive micronucleus study consisted of seven groups, each containing 5 male and female ICR mice. […] An additional group of 5 male and 5 female ICR mice were treated with 2000 mg/kg to be used as possible replacement animals for the high dose in the event of mortality. […] Bone marrow cells [polychromatic erythrocytes (2000 PCEs/animal)] collected 24 and 48 hours after treatment were examined microscopically for the presence of micronuclei.
Data set [2] concerns Chinese hamster ovary (CHO) cells. The experiment in a line: Chromosome aberration assay in CHO cells. In kind it is cell-based. Particulars: preliminary toxicity assay, any dose level up to 5000 μg/mL, all three exposure groups. On the procedure:
A preliminary toxicity test was performed to establish the dose range for the chromosome aberration assay. The chromosome aberration assay was used to evaluate the clastogenic potential of the test article. The dosing solution concentrations were adjusted to compensate for the protein content (13.6%) of the test article using a correction factor of 7.35.
In order to evaluate the toxic effect of lactose alone on the test system, α-Lactose monohydrate was tested as reference article at the same percentage of lactose as in the highest test article dose formulation in the preliminary toxicity assay. McCoy's media (complete medium for the non-activated test system and serum-free medium for the S9-activated test system) were the solvents of choice based on the solubility of the test article and compatibility with the target cells. […] The reference article was soluble in McCoy's complete and serum-free media at the dose level tested in the preliminary toxicity assay.
In the preliminary toxicity assay, the maximum dose tested was 5000 μg/mL. […] The reference article was soluble in complete medium and serum-free medium at 31.76 mg/mL at the beginning and conclusion of the treatment period. […]

The nature of data set [3]: Solubility and precipitation in water / on plates (mutation assay). In kind it is physicochemical. Particulars: initial toxicity-mutation assay with lactose, up to 31765 μg per plate.
Experimental: (§1) The dose levels tested were 1.5, 5.0, 15, 50, 150, 500, 1500 and 5000 μg per plate.
(§2) The dose levels tested were 50, 150, 500, 1500 and 5000 μg per plate.
A further data set concerns male and female ICR mice. Particulars: mouse, in vivo.
For data set [4], the system named is Salmonella typhimurium tester strains TA98, TA100, TA1535 and TA1537 and Escherichia coli tester strain WP2 uvrA. The experiment in a line: Bacterial Reverse Mutation Assay (plate incorporation method). The note with it: initial toxicity-mutation assay with lactose, maximum dose 31765 μg per plate.
Experimental: as §1
Based on the findings of the initial toxicity-mutation assay, the maximum dose plated in the confirmatory mutagenicity assay was 5000 μg per plate.
as §2

As for `O=P1(N(CCCl)CCCl)NCCCO1` (centres unmarked) [CP, cyclophosphamide monohydrate], the “incidence of micronucleated polychromatic erythrocytes relative to vehicle control” value in data set [1] is recorded as “significant increase”.
Consider `O.OC[C@H]1O[C@@H](O[C@H]2[C@H](O)[C@@H](O)[C@@H](O)O[C@@H]2CO)[C@H](O)[C@@H](O)[C@H]1O` [α-Lactose monohydrate], for which the “substantial toxicity (at least 50% cell growth inhibition relative to solvent control)” value in data set [2] is listed as “not observed”. Further, the precipitate result in data set [3] is on record as “Neither precipitate”. The “mortality and clinical signs” value in the data set with male and female ICR mice is given as “no clinical signs”. Also, in data set [4], the toxicity entry is on record as “Neither precipitate nor appreciable toxicity”.
